Legend:
Assay type in all cases: cell-based
CD28 negative T cells = experiment: CD28 negative T cell number after CD3/CD28 stimulation of human PBMCs for 4 days, flow cytometry; details: tacrolimus 10 nM, dexamethasone 1 μM, two donors
Method: (§1) PBMCs were separated from human peripheral blood by Ficoll centrifugation and added to a 96-well U-bottom microplate in an amount of 4×10^5 cells/well. Human IL-2 (PeproTech, Inc., final concentration: 100 ng/mL) and Dynabeads Human T-Activator CD3/CD28 (Life Technologies Corp., 4×105 beads/well) were added thereto, and T cells were activated by culture for 4 days. The obtained cells were recovered, suspended in a FACS buffer (PBS, 0.1% BSA, and 0.1% sodium azide), and then reacted with Human BD Fc Block (Becton, Dickinson and Company) at room temperature for 10 minutes. […] The data was analyzed using FlowJo (manufactured by Tree Star Inc). After removal of the LIVE/DEAD Fixable Dead Cell Stain Kit-near-IR fluorescent reactive dye-positive dead cells by gating, only the living cells were analyzed by further gating CD3 positive and CD8 positive CD8 T cells.
(§2) The effect of the humanized anti-human LAG-3 antibody hLA212_H4/L2, the calcineurin inhibitor tacrolimus, and the corticosteroid dexamethasone on CD28 negative T cells and CD57 positive T cells was investigated in the assay system of Example 13. […] Out of the living cells, a CD3 positive and CD8 negative fraction and a CD3 positive and CD8 positive fraction were analyzed as CD4 T cells and CD8 T cells, respectively.

CD57 positive T cells = experiment: CD57 positive T cell number after CD3/CD28 stimulation of human PBMCs for 4 days, flow cytometry; details: tacrolimus 10 nM, dexamethasone 1 μM, two donors
Method: as §1, §2

T cells (total number) = experiment: Total T cell number after CD3/CD28 stimulation of human PBMCs for 4 days, flow cytometry; details: hLA212_H4/L2 10 μg/mL, tacrolimus 10 nM, dexamethasone 1 μM, PBMCs of two donors
Method: as §1, with “minutes. Subsequently, the cell surface was stained by reaction at 4° C. for 30 minutes with fluorescently labeled antibodies diluted with a FACS buffer containing a LIVE/DEAD Fixable Dead Cell Stain Kit-near-IR fluorescent reactive dye (manufactured by Invitrogen Corp.), followed by washing with a FACS buffer.” for “minutes.”, “cells. […]” for “cells.”

[1] = tested on: perforin positive CD8 T cells; experiment: Perforin positive CD8 T cell number after CD3/CD28 stimulation of human PBMCs for 4 days, flow cytometry; details: hLA212_H4/L2 10 μg/mL, tacrolimus 10 nM, PBMCs of two donors
Method: as §1, with “minutes. Subsequently, the cell surface was stained by reaction at 4° C. for 30 minutes with fluorescently labeled antibodies diluted with a FACS buffer containing a LIVE/DEAD Fixable Dead Cell Stain Kit-near-IR fluorescent reactive dye (manufactured by Invitrogen Corp.), followed by washing with a FACS buffer.” for “minutes.”, “cells. […]” for “cells.”

[2] = hLA212_H4/L2 10, 1, 0.1 μg/mL (effect concentration dependent)

SMILES: C=CC[C@@H]1/C=C(\C)C[C@H](C)C[C@H](OC)[C@H]2O[C@@](O)(C(=O)C(=O)N3CCCC[C@H]3C(=O)O[C@H](/C(C)=C/[C@@H]3CC[C@@H](O)[C@H](OC)C3)[C@H](C)[C@@H](O)CC1=O)[C@H](C)C[C@@H]2OC [tacrolimus, reference compound]
- number of CD28 negative CD8 T cells (CD28 negative T cells; [2]): evident reduction in the number of CD28 negative CD8 T cells as found for the LAG-3 antibody was not observed
- number of CD28 negative CD4 T cells (CD28 negative T cells; hLA212_H4/L2 10, 1, 0.1 μg/mL): hardly effective or rather increased the cell number
- number of CD57 positive CD8 T cells (CD57 positive T cells; [2]): evident reduction in the number of CD57 positive CD8 T cells as found for the LAG-3 antibody was not observed
- number of CD57 positive CD4 T cells (CD57 positive T cells; hLA212_H4/L2 10, 1, 0.1 μg/mL): such an effect was hardly observed
- total number of T cells after culture, compared with the control (T cells (total number)): slightly reduced
- number of perforin positive CD8 T cells, compared with the control [1]: rarely different from those of the control

From patent US12145987B2, “Method for depleting cytotoxic T cells using an anti-LAG-3 antibody composition” (Daiichi Sankyo Company, Limited, priority 2017, dated 2024)
